Data set [1] deals with VIM-1 (Pseudomonas aeruginosa (strain ATCC 15692 / DSM 22644 / CIP 104116 / JCM 14847 / LMG 12228 / 1C / PRS 101 / PAO1), UniProt A0A0F7KYQ8). Briefly: biochemical. The settings on record: CCF2-FA substrate, 30 pM enzyme, 2 hours at 25° C. An outline of the steps:
(§1)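 Enzyme activity was measured by fluorescence using CCF2-FA, a cephalosporin-linked 7-hydroxycoumarin/fluorescein substrate, with inhibitor, metallo-β-lactamase and substrate incubated together for 2 hours at 25° C. IC50 came from a 4-parameter fit of inhibition versus log inhibitor concentration.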

The subject of data set [2] is Pseudomonas aeruginosa efflux− (MB9799), IMP-1. Format: cell-based. The settings on record: C, D serine β-lactamase inhibitor closely related to relebactam; for P. aeruginosa expressing IMP-1, efflux − (MB9799) MITC95: concentration restoring susceptibility to imipenem at 2 μg/mL in the presence of a class A; for Concentration of metallo-β-lactamase inhibitor which restores susceptibility of efflux − (MB9799) strain to imipenem: imipenem at 2 μg/mL, in the presence of a class A. An outline of the steps:
(§2)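 P. aeruginosa PAO1-derived IMP-1 strains, efflux+ MB9798 and efflux− MB9799, tested by standard microbroth MIC with imipenem and/or ceftazidime fixed, usually at CLSI breakpoint, plus fixed class A/C β-lactamase inhibitor against AmpC. Inhibitor titrated; concentration restoring susceptibility recorded; MB9798/MB9799 fold difference indicates efflux.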

Data set [3] deals with NDM-1 (Klebsiella pneumoniae, UniProt C7C422). The data set can be described thus: biochemical. Format: biochemical. The settings on record: fluorescence assay, CCF2-FA substrate, 1 pM enzyme, 2 hours at 25° C., read-out: NDM-1 IC50. The method in brief: as §1
Data set [4] deals with IMP-1 (Serratia marcescens, UniProt P52699). Briefly: biochemical. In kind it is biochemical. The settings on record: fluorescence assay, CCF2-FA substrate, 2 pM enzyme, 2 hours at 25° C., read-out: IMP-1 IC50. The method in brief: as §1
Data set [5] deals with Escherichia coli expressing NDM-1 (CLB30005, CLB30016). Format: cell-based. The settings on record: with imipenem 1 μg/ml; for Escherichia coli MITC95: NDM-1 strain, 95% inhibition of growth; for Escherichia coli expressing NDM-1 (CLB30016) MITC95: 95% inhibition of bacterial growth. An outline of the steps:
(§3)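 Imipenem 1 μg/ml + inhibitor; MBL-expressing clinical strains in 1.1×CAMHB, inoculum from saline suspension diluted 1:100; 35° C, 22–24 h; absorbance read-out.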

The test system of data set [6] is Klebsiella pneumoniae expressing VIM-1 (IHMA599644). In kind it is cell-based. The settings on record: for Klebsiella pneumoniae MITC95: VIM-1 strain IHMA599644, with imipenem 1 μg/ml, 95% inhibition of growth; for Klebsiella pneumoniae expressing VIM-1 (IHMA599644) MITC95: with imipenem 1 μg/ml, 95% inhibition of bacterial growth. The method in brief:
as §3

For data set [7], the system named is Serratia marcescens expressing IMP-1 (CL5741). Format: cell-based. The settings on record: for Serratia marcescens MITC95: IMP-1 strain CL5741, with imipenem 1 μg/ml, 95% inhibition of growth; for Serratia marcescens expressing IMP-1 (CL5741) MITC95: with imipenem 1 μg/ml, 95% inhibition of bacterial growth. An outline of the steps: as §3
Data set [8] concerns Pseudomonas aeruginosa efflux+ (MB9798), IMP-1. In kind it is cell-based. Further details: Concentration of metallo-β-lactamase inhibitor which restores susceptibility of efflux + (MB9798) strain to imipenem: unit not given here. The settings on record: C, D serine β-lactamase inhibitor closely related to relebactam; for P. aeruginosa expressing IMP-1, efflux + (MB9798) MITC95: concentration restoring susceptibility to imipenem at 2 μg/mL in the presence of a class A; for Concentration of metallo-β-lactamase inhibitor which restores susceptibility of efflux + (MB9798) strain to imipenem: imipenem at 2 μg/mL, in the presence of a class A. The method in brief:
as §2

In data set [9] the test system is Pseudomonas aeruginosa MB9798 vs MB9799. The method in brief: as §2
Setting [10] is: ratio MITC95 PA_9798/MITC95 PA_9799.
[11] abbreviates: fluorescence assay, read-out: VIM-1 IC50.
Setting [12] is: fold difference between efflux+ (MB9798) and efflux− (MB9799) strains, imipenem at 2 μg/mL.

Where two headings read alike, the source gives them in different places.

Chain of NDM-1 (C7C422 whole entry, looked up, species assumed): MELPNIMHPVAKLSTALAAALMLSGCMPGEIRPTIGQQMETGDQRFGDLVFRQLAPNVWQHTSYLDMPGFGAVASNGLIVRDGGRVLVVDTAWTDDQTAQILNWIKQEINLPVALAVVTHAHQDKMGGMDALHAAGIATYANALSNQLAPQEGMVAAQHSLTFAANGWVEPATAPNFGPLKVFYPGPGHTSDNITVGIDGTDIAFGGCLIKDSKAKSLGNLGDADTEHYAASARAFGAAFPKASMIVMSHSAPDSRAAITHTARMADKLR
Chain of IMP-1 (P52699 whole entry, looked up, species assumed): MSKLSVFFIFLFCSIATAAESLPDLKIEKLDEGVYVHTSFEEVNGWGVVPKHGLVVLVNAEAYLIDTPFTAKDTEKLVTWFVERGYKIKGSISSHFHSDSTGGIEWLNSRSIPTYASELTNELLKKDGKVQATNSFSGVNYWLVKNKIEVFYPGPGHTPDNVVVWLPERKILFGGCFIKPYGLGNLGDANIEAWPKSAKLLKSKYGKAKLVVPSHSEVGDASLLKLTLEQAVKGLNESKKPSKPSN

As usually defined, the IC50 is the concentration that inhibits the measured activity by half. Consider `NCCNS(=O)(=O)c1ccc(-c2cccc(SC[C@H](O)CN)c2)c(-c2nn[nH]n2)c1S(N)(=O)=O` [Example 356, (R)-3′-((3-amino-2-hydroxypropyl)thio)-N4-(2-aminoethyl)-2-(2H-tetrazol-5-yl)-[1,1′-biphenyl]-3,4-disulfonamide], for which the half-maximal inhibitory concentration (IC50) in data set [1] (VIM-1 IC50, fluorescence assay) amounted to 0.244 nM; in data set [3] it was 1.82 nM; in data set [4], 1.41 nM. In addition, the “P. aeruginosa expressing IMP-1, efflux − (MB9799) MITC95” value in data set [2] is 0.3906 µM. Further, the “Escherichia coli MITC95” value in data set [5] was determined as 0.7813 µM. The “Klebsiella pneumoniae MITC95” value in data set [6] is 0.7813 µM. In addition, in [7], the “Serratia marcescens MITC95” value was 0.7813 µM. In addition, in data set [8], the “P. aeruginosa expressing IMP-1, efflux + (MB9798) MITC95” value was 0.7813 µM. For the same compound, in data set [9] (setting [10]), the Efflux ratio was determined as 2.00.

For the compound `C[C@@H](CN)NS(=O)(=O)c1ccc(-c2ccc(N)nc2)c(-c2nn[nH]n2)c1S(N)(=O)=O` [Example 394], the concentration for half-maximal inhibition (IC50) in [1] (setting [11]) stood at 1.24 nM; in data set [3], 1.89 nM; in data set [4], 2 nM. Moreover, the “Concentration of metallo-β-lactamase inhibitor which restores susceptibility of efflux − (MB9799) strain to imipenem” value in data set [2] worked out at 1.563. Moreover, the “Escherichia coli MITC95” value in [5] worked out at 0.3906 µM. Further, the “Klebsiella pneumoniae MITC95” value in data set [6] was found to be 3.125 µM. In addition, the “Serratia marcescens MITC95” value in [7] was determined as 1.563 µM. In addition, in [8], the “Concentration of metallo-β-lactamase inhibitor which restores susceptibility of efflux + (MB9798) strain to imipenem” value was 3.125. Moreover, the Efflux ratio in data set [9] (setting [12]) worked out at 2.00.

Consider `NC[C@H](N)CNS(=O)(=O)c1ccc(-c2cccnc2N)c(-c2nn[nH]n2)c1S(N)(=O)=O` [Example 213, (S)-4-(2-aminopyridin-3-yl)-N1-(2,3-diaminopropyl)-3-(2H-tetrazol-5-yl)benzene-1,2-disulfonamide], for which the figures for the IC50 in [1] (setting [11]), in [3] and in data set [4] were 0.113 nM, 0.0759 nM and 1.54 nM, respectively. The “P. aeruginosa expressing IMP-1, efflux − (MB9799) MITC95” value in data set [2] worked out at 1.563 µM. Further, the “Escherichia coli expressing NDM-1 (CLB30016) MITC95” value in [5] turned out to be 0.3906 µM. In addition, in [6], the “Klebsiella pneumoniae expressing VIM-1 (IHMA599644) MITC95” value is 1.563 µM. For the same compound, in data set [7], the “Serratia marcescens expressing IMP-1 (CL5741) MITC95” value is 0.7813 µM. Moreover, the “P. aeruginosa expressing IMP-1, efflux + (MB9798) MITC95” value in data set [8] turned out to be 3.125 µM. Also, the Efflux ratio in [9] (setting [10]) amounted to 2.00.

As to `NCCNS(=O)(=O)c1ccc(-c2cccc3[nH]c([C@@H](N)CO)nc23)c(-c2nn[nH]n2)c1S(N)(=O)=O` [Example 331, (R)-4-(2-(1-amino-2-hydroxyethyl)-1H-benzo[d]imidazol-4-yl)-N1-(2-aminoethyl)-3-(2H-tetrazol-5-yl)benzene-1,2-disulfonamide], the IC50 in data set [1] (VIM-1 IC50, fluorescence assay) was determined as 0.18 nM; in data set [3], 0.228 nM; in [4], 2.28 nM. Further, in data set [2], the “P. aeruginosa expressing IMP-1, efflux − (MB9799) MITC95” value came out at 1.563 µM. The “Escherichia coli MITC95” value in data set [5] was determined as 1.563 µM. Further, the “Klebsiella pneumoniae MITC95” value in [6] amounted to 3.125 µM. The “Serratia marcescens MITC95” value in data set [7] amounted to 3.125 µM. Moreover, the “P. aeruginosa expressing IMP-1, efflux + (MB9798) MITC95” value in [8] is 1.563 µM. Further, the Efflux ratio in data set [9] (setting [10]) is 1.00.

`NCCNS(=O)(=O)c1ccc(-c2cccc(-c3n[nH]c(N)n3)c2)c(-c2nn[nH]n2)c1S(N)(=O)=O` [Example 228, 3′-(5-amino-1H-1,2,4-triazol-3-yl)-N4-(2-aminoethyl)-2-(2H-tetrazol-5-yl)-[1,1′-biphenyl]-3,4-disulfonamide]: the IC50 in [1] (setting [11]) amounted to 0.15 nM; in data set [3] it was 0.0864 nM; in data set [4] it was 0.562 nM. Also, the “P. aeruginosa expressing IMP-1, efflux − (MB9799) MITC95” value in data set [2] is 1.563 µM. Moreover, the “Escherichia coli expressing NDM-1 (CLB30016) MITC95” value in [5] turned out to be 0.7813 µM. Also, the “Klebsiella pneumoniae expressing VIM-1 (IHMA599644) MITC95” value in [6] amounted to 3.125 µM. Further, the “Serratia marcescens expressing IMP-1 (CL5741) MITC95” value in data set [7] is 1.563 µM. In data set [8], the “P. aeruginosa expressing IMP-1, efflux + (MB9798) MITC95” value turned out to be 1.563 µM. Moreover, in data set [9] (setting [10]), the Efflux ratio was 1.00.

In the case of `Nc1ccc(-c2ccc(S(=O)(=O)NCC3(O)CNC3)c(S(N)(=O)=O)c2-c2nn[nH]n2)cn1` [Example 495, 4-(6-aminopyridin-3-yl)-N1-((3-hydroxyazetidin-3-yl)methyl)-3-(2H-tetrazol-5-yl)benzene-1,2-disulfonamide], the figures for the IC50 in data set [1] (setting [11]), in data set [3] and in data set [4] were 0.301 nM, 0.215 nM and 0.328 nM, respectively. Besides, the “Concentration of metallo-β-lactamase inhibitor which restores susceptibility of efflux − (MB9799) strain to imipenem” value in data set [2] was found to be 0.7813. Besides, the “Escherichia coli MITC95” value in data set [5] worked out at 0.1953 µM. For the same compound, the “Klebsiella pneumoniae MITC95” value in [6] is 1.563 µM. Also, in data set [7], the “Serratia marcescens MITC95” value amounted to 0.7813 µM. The “Concentration of metallo-β-lactamase inhibitor which restores susceptibility of efflux + (MB9798) strain to imipenem” value in [8] was 0.7813. Further, in data set [9] (setting [12]), the Efflux ratio is given as 1.00.

As for `NC[C@@H]1CCN(S(=O)(=O)c2ccc(-c3cccc4sc(N)nc34)c(-c3nnn[nH]3)c2S(N)(=O)=O)C1.O=C(O)C(F)(F)F` [Example 94, (S)-(1-((4-(2-aminobenzo[d]thiazol-4-yl)-2-sulfamoyl-3-(1H-tetrazol-5-yl)phenyl)sulfonyl)pyrrolidin-3-yl)methanaminium 2,2,2-trifluoroacetate], the IC50 in [1] (VIM-1 IC50, fluorescence assay) stood at 0.973 nM; in [3] (2,2,2-trifluoroacetate), 0.574 nM; in data set [4] (2,2,2-trifluoroacetate) it was 0.73 nM. In addition, the “P. aeruginosa expressing IMP-1, efflux − (MB9799) MITC95” value in data set [2] came out at 1.563 µM. Further, in data set [5], the “Escherichia coli expressing NDM-1 (CLB30016) MITC95” value was 3.646 µM. The “Klebsiella pneumoniae expressing VIM-1 (IHMA599644) MITC95” value in data set [6] worked out at 3.125 µM. In addition, the “Serratia marcescens expressing IMP-1 (CL5741) MITC95” value in data set [7] was determined as 2.083 µM. Moreover, the “P. aeruginosa expressing IMP-1, efflux + (MB9798) MITC95” value in data set [8] was 1.563 µM. Further, the Efflux ratio in [9] (setting [10]) is on record as 1.00.

Turning to `NS(=O)(=O)c1ccc(-c2cccc3[nH]c(C(=O)O)nc23)c(-c2nn[nH]n2)c1S(N)(=O)=O` [Example 8, 4-(3,4-disulfamoyl-2-(2H-tetrazol-5-yl)phenyl)-1H-benzo[d]imidazole-2-carboxylic acid], the IC50 in [1] (setting [11]) worked out at 0.287 nM; in data set [3] it was 0.123 nM; in [4] it was 0.361 nM. Further, the “P. aeruginosa expressing IMP-1, efflux − (MB9799) MITC95” value in [2] was 1.563 µM. The “Escherichia coli expressing NDM-1 (CLB30016) MITC95” value in data set [5] is 1.563 µM. The “Klebsiella pneumoniae expressing VIM-1 (IHMA599644) MITC95” value in data set [6] is 6.25 µM. In data set [7], the “Serratia marcescens expressing IMP-1 (CL5741) MITC95” value turned out to be 3.125 µM. Besides, the “P. aeruginosa expressing IMP-1, efflux + (MB9798) MITC95” value in data set [8] came out at 1.563 µM. Also, the Efflux ratio in data set [9] (setting [10]) is on record as 1.00.

As to `Nc1ccc(-c2ccc(S(=O)(=O)NC[C@@H]3CCCN3)c(S(N)(=O)=O)c2-c2nn[nH]n2)cn1` [Example 488, (S)-4-(6-aminopyridin-3-yl)-N1-(pyrrolidin-2-ylmethyl)-3-(2H-tetrazol-5-yl)benzene-1,2-disulfonamide], the figures for the IC50 in [1] (setting [11]), in data set [3] and in [4] were 0.21 nM, 0.206 nM and 0.355 nM, respectively. In addition, the “Concentration of metallo-β-lactamase inhibitor which restores susceptibility of efflux − (MB9799) strain to imipenem” value in [2] was determined as 0.7813. The “Escherichia coli MITC95” value in [5] stood at 0.1953 µM. Further, in [6], the “Klebsiella pneumoniae MITC95” value amounted to 1.563 µM. For the same compound, the “Serratia marcescens MITC95” value in data set [7] is 0.1953 µM. In data set [8], the “Concentration of metallo-β-lactamase inhibitor which restores susceptibility of efflux + (MB9798) strain to imipenem” value is recorded as 0.7813. The Efflux ratio in data set [9] (setting [12]) came out at 1.00.

The values are drawn from patent US10221163B2 (priority 2015, dated 2019).
